The supplement of paper PMC10307832

Experiments:
Test in all cases: relative viability (nuclei count vs DMSO), 5 days (fraction); higher = more cells survive
Kobe2602 + Pictilisib = compound: C1=CC(=CC=C1NC(=S)NNC2=C(C=C(C=C2[N+](=O)[O-])C(F)(F)F)[N+](=O)[O-])F [Kobe2602] + CS(=O)(=O)N1CCN(Cc2cc3nc(-c4cccc5[nH]ncc45)nc(N4CCOCC4)c3s2)CC1 [Pictilisib] (partner 1 µM)
Outline: (§1)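 Lung cancer cell lines in 1536-well plates got either a single drug or a fixed anchor-drug dose together with five library-drug doses (not always all listed) in √10 steps, by pin tool, on the day after seeding. Nuclei were counted after 5 days, and relative viability is the treated-to-vehicle ratio of nuclei counts. Values are medians of duplicate plates.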

Zosuquidar + Trametinib = compound: O[C@@H](COc1cccc2ncccc12)CN1CCN([C@@H]2c3ccccc3[C@@H]3[C@H](c4ccccc42)C3(F)F)CC1 [Zosuquidar] + CC(=O)Nc1cccc(-n2c(=O)n(C3CC3)c(=O)c3c(Nc4ccc(I)cc4F)n(C)c(=O)c(C)c32)c1 [Trametinib] (partner 0.02 µM)
Outline: as §1

Zosuquidar + Palbociclib = compound: O[C@@H](COc1cccc2ncccc12)CN1CCN([C@@H]2c3ccccc3[C@@H]3[C@H](c4ccccc42)C3(F)F)CC1 [Zosuquidar] + CC(=O)c1c(C)c2cnc(Nc3ccc(N4CCNCC4)cn3)nc2n(C2CCCC2)c1=O [Palbociclib] (partner 0.5 µM)
Outline: as §1

Zosuquidar + AZD7762 = compound: O[C@@H](COc1cccc2ncccc12)CN1CCN([C@@H]2c3ccccc3[C@@H]3[C@H](c4ccccc42)C3(F)F)CC1 [Zosuquidar] + NC(=O)Nc1cc(-c2cccc(F)c2)sc1C(=O)N[C@H]1CCCNC1 [AZD7762] (partner 0.2 µM)
Outline: as §1

| Cell Line | relative viability (Kobe2602 + Pictilisib; first compound 0.2 µM) | relative viability (Kobe2602 + Pictilisib; first compound 0.6325 µM) | relative viability (Kobe2602 + Pictilisib; first compound 2 µM) | relative viability (Kobe2602 + Pictilisib; first compound 6.325 µM) | relative viability (Kobe2602 + Pictilisib; first compound 20 µM) | relative viability (Zosuquidar + Trametinib; first compound 0.01 µM) | relative viability (Zosuquidar + Trametinib; first compound 0.03162 µM) | relative viability (Zosuquidar + Trametinib; first compound 0.1 µM) | relative viability (Zosuquidar + Trametinib; first compound 0.3162 µM) | relative viability (Zosuquidar + Trametinib; first compound 1 µM) | relative viability (Zosuquidar + Palbociclib; first compound 0.01 µM) | relative viability (Zosuquidar + Palbociclib; first compound 0.03162 µM) | relative viability (Zosuquidar + Palbociclib; first compound 0.1 µM) | relative viability (Zosuquidar + Palbociclib; first compound 0.3162 µM) | relative viability (Zosuquidar + Palbociclib; first compound 1 µM) | relative viability (Zosuquidar + AZD7762; first compound 0.01 µM) | relative viability (Zosuquidar + AZD7762; first compound 0.03162 µM) | relative viability (Zosuquidar + AZD7762; first compound 0.1 µM) | relative viability (Zosuquidar + AZD7762; first compound 0.3162 µM) | relative viability (Zosuquidar + AZD7762; first compound 1 µM) |
| --- | --- | --- | --- | --- | --- | --- | --- | --- | --- | --- | --- | --- | --- | --- | --- | --- | --- | --- | --- | --- |
| 201T | 0.69 | 0.718 | 0.672 | 0.686 | 0.697 | 0.731 | 0.742 | 0.684 | 0.691 | 0.719 | 0.349 | 0.343 | 0.365 | 0.354 | 0.337 | 0.592 | 0.623 | 0.67 | 0.685 | 0.731 |
| A549 |  | 0.476 | 0.487 | 0.524 | 0.514 |  |  |  |  |  |  |  |  |  |  |  |  |  |  |  |
| A-427 | 0.742 | 0.925 | 0.741 | 0.774 | 0.98 | 0.795 | 0.871 | 0.77 | 0.82 | 0.741 | 0.542 | 0.522 | 0.552 | 0.566 | 0.51 | 0.759 | 0.798 | 0.693 | 0.764 | 0.705 |
| ABC-1 | 0.821 | 1.03 | 0.768 | 0.923 | 0.868 |  |  |  |  |  | 0.616 | 0.685 | 0.68 | 0.84 | 0.599 | 0.69 | 0.864 | 0.665 | 0.717 | 0.733 |
| BEN | 0.607 | 0.581 | 0.733 | 0.523 | 0.645 | 1.21 | 1.16 | 0.885 | 0.999 | 0.927 | 0.467 | 0.491 | 0.456 | 0.455 | 0.489 | 0.738 | 0.615 | 0.518 | 0.724 | 0.589 |
| CAL-12T | 0.59 | 0.556 | 0.394 | 0.387 | 0.548 | 0.327 | 0.449 | 0.262 | 0.442 | 0.32 | 0.381 | 0.62 | 0.412 | 0.593 | 0.462 | 0.586 | 0.626 | 0.469 | 0.632 | 0.738 |
| COR-L23 | 0.766 | 0.695 | 0.811 | 0.837 | 0.832 | 0.573 | 0.639 | 0.507 | 0.811 | 0.505 | 0.295 | 0.328 | 0.301 | 0.354 | 0.314 |  |  |  |  |  |
| COR-L 105 | 0.434 | 0.433 | 0.377 | 0.455 | 0.387 | 0.459 | 0.435 | 0.408 | 0.266 | 0.481 | 0.372 | 0.376 | 0.478 | 0.417 | 0.385 |  |  |  |  |  |
| Calu-6 | 0.935 | 0.931 | 0.856 | 0.885 | 0.882 |  |  |  |  |  |  |  |  |  |  |  |  |  |  |  |
| ChaGo-K-1 | 0.761 | 1.05 | 0.625 | 0.725 | 0.732 | 0.893 | 0.922 | 0.874 | 0.943 | 0.897 | 0.885 | 0.994 | 1.02 | 0.917 | 0.947 | 0.807 | 0.799 | 0.896 | 0.818 | 0.93 |
| EBC-1 | 0.365 | 0.556 | 0.402 | 0.378 | 0.437 |  |  |  |  |  |  |  |  |  |  |  |  |  |  |  |
| EKVX | 0.461 | 0.422 | 0.386 | 0.412 | 0.426 | 0.33 | 0.415 |  | 0.359 | 0.335 | 0.377 | 0.39 |  | 0.411 | 0.375 | 0.747 | 0.77 |  | 0.752 | 0.659 |
| EMC-BAC-2 | 0.503 | 0.6 | 0.548 | 0.569 | 0.558 | 0.92 | 0.988 | 0.842 | 1.02 | 0.883 | 0.508 | 0.451 | 0.544 | 0.577 | 0.521 | 1.1 | 1.15 | 1.11 | 1.26 | 0.979 |
| EPLC-272H | 0.321 | 0.458 | 0.294 | 0.345 | 0.374 | 0.285 | 0.274 | 0.278 | 0.276 | 0.285 | 0.32 | 0.362 | 0.298 | 0.31 | 0.336 | 0.233 | 0.154 | 0.29 | 0.32 | 0.222 |
| H3255 | 0.533 | 0.451 | 0.509 | 0.486 | 0.509 | 0.58 | 0.581 | 0.525 | 0.638 | 0.632 | 0.306 | 0.335 | 0.32 | 0.33 | 0.33 | 1.03 | 0.832 | 0.766 | 0.95 | 0.795 |
| HARA | 0.445 | 0.415 | 0.375 | 0.345 | 0.495 | 0.833 | 0.938 | 0.772 | 1.03 | 0.541 | 0.324 | 0.18 | 0.304 | 0.245 | 0.299 | 0.429 | 0.343 | 0.304 | 0.344 | 0.322 |
| HCC-15 | 0.816 | 0.848 | 0.738 | 0.78 | 0.707 | 0.393 | 0.374 | 0.345 | 0.397 | 0.38 | 0.721 | 0.689 | 0.702 | 0.723 | 0.715 | 1.11 | 1.27 | 1.17 | 1.18 | 1.16 |
| HCC-44 | 0.63 | 0.623 | 0.684 | 1.54 | 0.662 | 1.01 | 0.999 | 0.96 | 1.09 | 1.13 | 0.974 | 1.04 | 0.944 | 1.02 | 0.956 | 1.02 | 1.11 | 1.02 | 1.01 | 1 |
| HCC-78 | 0.246 | 0.255 |  | 0.212 | 0.211 | 0.799 |  |  | 1 | 0.759 | 0.477 | 0.545 |  | 0.492 | 0.462 | 0.685 |  |  | 0.72 | 0.524 |
